Series [1] is described as follows: PANTAX phase Ib: plasma pharmacokinetics of SCO-101. The series is classed as in vivo, human. On the procedure: Pharmacokinetics (PK) blood samples were drawn during the first cycle of treatment on day one of SCO-101 administration (6 time points), on day six (6 time points), and on day nine (72 h after last SCO-101 treatment). Plasma samples were analyzed for SCO-101 using a bioanalytical method (BM/2020/0998) developed and validated under study KF64YR at LabCorp (England). SCO-101 was extracted from human plasma by protein precipitation and analyzed by liquid chromatography using tandem mass spectrometry (LC–MS/MS). Pharmacokinetic parameters were determined by noncompartmental analysis using the software package SAS (version 9.4 or higher). The PK profile of SCO-101 was evaluated by maximum drug plasma concentration (Cmax) and area under the plasma drug concentration–time curve (AUC0 to 8 h).

Series [2] relates to patients with colorectal cancer. The conditions noted are these: SCO-101 with FOLFIRI, patients with prior progression on FOLFIRI, cited from earlier work.
In series [3] the target is T1, ABCB1 (MDR1) human ABC transporter (Homo sapiens, UniProt P08183).
T1 construct: purchased SOLVO Biotechnology
As to the kind of experiment: ABCB1 (MDR1) vesicular uptake inhibition in inside-out membrane vesicles. Particulars: vesicular uptake of probe substrate, SCO-101 1.2-300 µM, with and without ATP; read-out: IC50, inhibition of MDR1/ABCB1 efflux transporter. The series is classed as biochemical. On the procedure:
Analysis of SCO-101 ABCB1 (MDR1) efflux transporter inhibition was evaluated by measuring the vesicular uptake of a probe substrate into inside-out membrane vesicles expressing ABCB1 (MDR1) human ABC transporter in the absence and presence of SCO-101 (1.2 –300 μM) with and without ATP. Transporter inhibition was observed as reduced level of vesicular uptake of the probe substrate in the presence of ATP. ABCB1 (MDR1) assay was conducted with reagents from PredivezTM VT Reagent Kit for MDR1/P-gp (SOLVO Biotechnology). Assays were conducted as per the manufacturer’s recommendation. The inhibition was evaluated by measuring the vesicular uptake of a probe substrate into inside-out membrane vesicles. Assays were conducted with or without ATP and in the absence and presence of SCO-101 at the indicated concentrations (1.2 –300μM).

Details of series [4]: method as in PMID 32628359. Particulars: healthy volunteers, cited from earlier work.
For series [5], the system named is wild-type PANC-1 cells. The series is described as follows: Crystal violet combination assay in wild-type PANC-1 cells. Format: cell-based, human. The conditions noted are these: 120 h drug incubation. On the procedure:
For the crystal violet assay, cells were seeded into 6-well plates at a density of 40,000 cells/well or into 48-wells with 4000 cells/well. One day after seeding, the cells were experimentally treated. Control conditions consisted of either growth medium (‘untreated’) or DMSO diluted in growth medium. All treatments were performed in triplicates. The cells were then kept in the CO2 incubator at 37 °C until staining with crystal violet dye for 10mins and let to dry overnight. The following day crystal violet dye was dissolved using 20% acetic acid and absorbance was measured at 570 nm.
Experiments with 4 different concentrations of either SCO-101 or paclitaxel and their combinations were applied to test for synergy among these two compounds in both the PANC-1 parental and -Paclitaxel resistant cells. […] The SRPK1 inhibitor SPHINX31 was tested at 0.1; 0.5; 1 and 5 µM. The SRPK1 inhibitor SRPIN was tested at 1; 5; 10 and 50 µM. Both inhibitors were tested in combination with 5, 10, 15 and 20 nM Paclitaxel.
A) the resistant PANC-1-Pac and B) the sensitive parental PANC-1 cell lines. Cells were either 1) untreated, 2) incubated with 30µM SCO-101, 3) 40µM SCO-101, 4) 4nM paclitaxel, 5) 30µM SCO-101 + 4nM paclitaxel or 6) 40µM SCO-101 + 4nM paclitaxel. Drug incubation for 120 hours was followed by staining with crystal violet.

T1 sequence (P08183 whole entry): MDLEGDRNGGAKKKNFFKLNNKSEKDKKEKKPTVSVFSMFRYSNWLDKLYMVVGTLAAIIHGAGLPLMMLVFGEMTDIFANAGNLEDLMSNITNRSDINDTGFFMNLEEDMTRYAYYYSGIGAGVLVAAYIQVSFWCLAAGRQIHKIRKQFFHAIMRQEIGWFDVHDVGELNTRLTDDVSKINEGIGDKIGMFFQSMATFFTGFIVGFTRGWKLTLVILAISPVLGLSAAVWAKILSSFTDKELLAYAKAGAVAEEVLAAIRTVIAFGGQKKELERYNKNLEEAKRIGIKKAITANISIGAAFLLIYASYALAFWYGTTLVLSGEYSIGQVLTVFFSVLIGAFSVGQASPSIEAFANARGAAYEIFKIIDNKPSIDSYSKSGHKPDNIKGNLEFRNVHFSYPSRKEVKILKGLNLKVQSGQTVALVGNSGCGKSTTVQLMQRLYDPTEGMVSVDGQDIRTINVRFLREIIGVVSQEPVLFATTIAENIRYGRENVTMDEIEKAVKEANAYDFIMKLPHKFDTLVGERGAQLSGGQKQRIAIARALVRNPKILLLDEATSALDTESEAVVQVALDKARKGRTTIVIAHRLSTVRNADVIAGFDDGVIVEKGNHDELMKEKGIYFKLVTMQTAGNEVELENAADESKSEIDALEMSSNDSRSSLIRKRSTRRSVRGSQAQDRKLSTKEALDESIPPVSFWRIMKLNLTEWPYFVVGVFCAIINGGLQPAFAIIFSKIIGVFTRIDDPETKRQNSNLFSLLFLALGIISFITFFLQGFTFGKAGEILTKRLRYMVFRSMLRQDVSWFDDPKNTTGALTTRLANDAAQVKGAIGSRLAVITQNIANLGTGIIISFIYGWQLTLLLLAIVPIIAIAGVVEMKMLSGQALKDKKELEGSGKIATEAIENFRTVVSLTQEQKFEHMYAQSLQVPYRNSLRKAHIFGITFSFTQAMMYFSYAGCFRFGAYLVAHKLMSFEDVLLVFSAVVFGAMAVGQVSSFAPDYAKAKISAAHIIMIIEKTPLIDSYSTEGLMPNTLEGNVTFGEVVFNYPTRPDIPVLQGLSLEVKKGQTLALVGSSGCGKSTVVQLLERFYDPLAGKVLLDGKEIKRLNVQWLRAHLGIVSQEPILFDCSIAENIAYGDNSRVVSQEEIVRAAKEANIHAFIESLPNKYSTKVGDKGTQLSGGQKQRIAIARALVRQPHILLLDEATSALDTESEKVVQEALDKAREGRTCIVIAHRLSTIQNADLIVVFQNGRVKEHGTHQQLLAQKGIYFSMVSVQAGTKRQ

As to `O=C(Nc1cc(C(F)(F)F)cc(C(F)(F)F)c1)Nc1ccc(Br)cc1-c1nnn[nH]1` [SCO-101], the “increase in exposure with dose” value in series [1] (50-250 mg daily, Cmax and AUC0-8 h) is listed as “approximately dose proportional”. Besides, the “fraction of SCO-101 Cmax present at day 9” value in series [1] (average, 200 mg and 250 mg doses, 72 h after last SCO-101 treatment) stood at 33%. Also, the “accumulation of Cmax and AUC0-8 h” value in series [1] (daily doses for 6 consecutive days, plasma, patients) was “two- to threefold”. Moreover, in series [2] (4 of 25 patients), the tumor response is 16%. Moreover, the mOS in series [2] is 10.4 months. Moreover, the IC50 in series [3] is 16.1 µM. Also, the “individuals who developed clinical jaundice” value in series [4] (150 mg dose cohort) is “Two”. Moreover, the adverse events result in series [4] (single doses up to 200 mg or multiple doses up to 150 mg daily for 14 days) is “mild adverse events (AEs) and no serious adverse events (SAEs)”. Also, in series [5], the “combination effect of SCO-101 and paclitaxel” value was “no combination effect”.
